From patent US11370778B2, “Bis(pentahydroxyhexyl)amino substituted 2-{[(3-amino-pyrazin-2-yl)formamido]methyl}-1H-1,3-benzodiazol-3-ium derivatives as ENaC inhibitors for treating respiratory diseases” (ENTERPRISE THERAPEUTICS LIMITED, priority 2017, dated 2022)
Where a name gives a salt, the structure may show the parent alone.

Experiment: Bronchoalveolar lavage: compound levels in BAL after intratracheal administration
Format: in vivo
Conditions: bronchoalveolar lavage fluid (BAL), other: intratracheal, 0.1 mg/kg, rat, 0.1 mg/mL solution in 5% dextrose, 1 mL/Kg, lungs lavaged after 6 hours, LC/MS/MS
Experimental: Example 9—Bronchoalveolar Lavage A 0.1 mg/mL solution of ENaC inhibitor in 5% dextrose was administered intratracheally to a rat weighing 225-250 g. A volume of 1 mL/Kg was used. After 6 hours, lungs were lavaged with 3×4 mL of sterile saline. A 1 mL aliquot was subsequently snap frozen. Lungs were excised, weighed and snap frozen. Compound levels in the BAL and lung tissue were subsequently determined using LC/MS/MS bioanalysis.
With CCn1c(CNC(=O)c2nc(Cl)c(N)nc2N)[n+](CC)c2ccc(C(=O)N3CCC(N(C[C@H](O)[C@@H](O)[C@H](O)[C@H](O)CO)C[C@H](O)[C@@H](O)[C@H](O)[C@H](O)CO)CC3)cc21 [Example 1, 6-(4-{bis[(2S,3R,4R,5R)-2,3,4,5,6-pentahydroxyhexyl]amino}piperidine-1-carbonyl)-2-{[(3,5-diamino-6-chloropyrazin-2-yl)formamido]methyl}-1,3-diethyl-1H-1,3-benzodiazol-3-ium trifluoroacetic acid trifluoroacetate] the concentration at 6 h was 222 ng/mL. In the case of CCn1c(CNC(=O)c2nc(Cl)c(N)nc2N)[n+](CC)c2ccc(C(=O)N3CCC(CN(C[C@H](O)[C@@H](O)[C@H](O)[C@H](O)CO)C[C@H](O)[C@@H](O)[C@H](O)[C@H](O)CO)CC3)cc21 [Example 3, 6-[4-({bis[(2S,3R,4R,5R)-2,3,4,5,6-pentahydroxyhexyl]amino}methyl)piperidine-1-carbonyl]-2-{[(3,5-diamino-6-chloropyrazin-2-yl)formamido]methyl}-1,3-diethyl-1H-1,3-benzodiazol-3-ium trifluoroacetic acid trifluoroacetate], the concentration at 6 h was 210 ng/mL. In the case of CCn1c(CNC(=O)c2nc(Cl)c(N)nc2N)[n+](CC)c2ccc(C(=O)N3CC[C@@H](N(C[C@H](O)[C@@H](O)[C@H](O)[C@H](O)CO)C[C@H](O)[C@@H](O)[C@H](O)[C@H](O)CO)C3)cc21 [Example 4, 6-[(3R)-3-{bis[(2S,3R,4R,5R)-2,3,4,5,6-pentahydroxyhexyl]amino}pyrrolidine-1-carbonyl]-2-{[(3,5-diamino-6-chloropyrazin-2-yl)formamido]methyl}-1,3-diethyl-1H-1,3-benzodiazol-3-ium trifluoroacetic acid trifluoroacetate], the concentration at 6 h was 524 ng/mL. Work on CCn1c(CNC(=O)c2nc(Cl)c(N)nc2N)[n+](CC)c2ccc(C(=O)NCCN(C[C@H](O)[C@@H](O)[C@H](O)[C@H](O)CO)C[C@H](O)[C@@H](O)[C@H](O)[C@H](O)CO)cc21 [Example 5, 6-[(2-{bis[(2S,3R,4R,5R)-2,3,4,5,6-pentahydroxyhexyl]amino}ethyl)carbamoyl]-2-{[(3,5-diamino-6-chloropyrazin-2-yl)formamido]methyl}-1,3-diethyl-1H-1,3-benzodiazol-3-ium trifluoroacetic acid trifluoroacetate] yielded a concentration at 6 h of 471 ng/mL. Work on CCn1c(CNC(=O)c2nc(Cl)c(N)nc2N)[n+](CC)c2ccc(C(=O)NCCOCCOCCOCCN(C[C@H](O)[C@@H](O)[C@H](O)[C@H](O)CO)C[C@H](O)[C@@H](O)[C@H](O)[C@H](O)CO)cc21 [Example 6, 2-{[(3,5-diamino-6-chloropyrazin-2-yl)formamido]methyl}-1,3-diethyl-6-{[(14S,15R,16R,17R)-14,15,16,17,18-pentahydroxy-12-[(2S,3R,4R,5R)-2,3,4,5,6-pentahydroxyhexyl]-3,6,9-trioxa-12-azaoctadecan-1-yl]carbamoyl}-1H-1,3-benzodiazol-3-ium trifluoroacetic acid trifluoroacetate] yielded a concentration at 6 h of 251 ng/mL. Work on CCn1c(CNC(=O)c2nc(Cl)c(N)nc2N)[n+](CC)c2ccc(C(=O)NCCc3ccc(-c4ccc(CCN(C[C@H](O)[C@@H](O)[C@H](O)[C@H](O)CO)C[C@H](O)[C@@H](O)[C@H](O)[C@H](O)CO)cc4)cc3)cc21 [Example 7, 6-({2-[4′-(2-{bis[(2S,3R,4R,5R)-2,3,4,5,6-pentahydroxyhexyl]amino}ethyl)-[1,1′-biphenyl]-4-yl]ethyl}carbamoyl)-2-{[(3,5-diamino-6-chloropyrazin-2-yl)formamido]methyl}-1,3-diethyl-1H-1,3-benzodiazol-3-ium trifluoroacetic acid trifluoroacetate] yielded a concentration at 6 h of 645 ng/mL.
